From patent US8476463B2 (BASF SE, priority 2008, dated 2013)

Assay: Temperature-dependent solubility (saturation concentration) of fumaric acid in di-n-butyl phthalate absorbent
Type: physicochemical
Text: The analysis can be effected, for example, by means of calibrated gas chromatography. For calibration, preference is given to using an internal standard, for example diethylene glycol dimethyl ether. Before the gas chromatography analysis, the sample is generally homogenized, i.e. taken up in a solvent. One example of a solvent entirely suitable for this purpose is N,N-dimethylformamide. […] Particularly suitable separating columns are capillary columns with 100% dimethylpolysiloxane (e.g. DB-1 from Agilent) or (14% cyanopropylphenyl)methylpolysiloxane (e.g. DB-1701 from Agilent), preferably each of length 60 m, internal diameter 0.32 mm and film thickness 1 μm.
The syringe attachment filter used is a membrane filter of pore width 0.2 micrometer. […] Its concentration is determined analogously to the analysis method described in the determination of c(FA, desorption column outlet). […] When establishing the new, higher temperature, the temperature of the suspension must not overshoot the desired temperature by more than 3° C. When the desired temperature has been established, the mixture is then stirred at constant temperature at least for a duration of 4 hours. • (6) After this continued stirring time, another sample is taken, as described in point (4). In each sampling, generally a new syringe attachment filter is used.
Examples of secondary components caused by the industrial process include water, maleic anhydride, maleic acid, acrylic acid, methacrylic acid, acetic acid, propionic acid, phthalic anhydride and phthalic acid. […] The continuous line corresponds to the fitted curve.

saturation concentration of fumaric acid in the solution (mixture of dibutyl phthalate and fumaric acid, 50° C.): 250 ppm by weight
saturation concentration of fumaric acid in the solution (solution from industrially operated maleic anhydride plant (dibutyl phthalate >98.5% by weight), 30° C.): 250 ppm by weight
saturation concentration of fumaric acid in the solution (solution from industrially operated maleic anhydride plant (dibutyl phthalate >98.5% by weight), 50° C.): 400 ppm by weight
SMILES: O=C(O)/C=C/C(=O)O [fumaric acid]
